What was measured:
A549 cells [1] = assay: GSH-Glo reduced glutathione content assay; type: cell-based, human; conditions: A549, 2 μM XB05, 24 h
Experimental: (§1) FIG. 8: XB05 Modulates Cellular Stress Responses. (A) A luminescence-based assay for reduced glutathione (GSH) content in cells treated 24 h with XB05 (1 μM for U937 and Hs27, or 2 μM for A549), in the absence or presence of 5 mM GSH. Some cells were treated with buthionine sulfoximine (BSO, 200 μM) plus diethyl maleate (DEM, 1 mM) for 3 h as a positive control for GSH depletion. Bar graph indicates mean+/−SEM from three independent experiments. […] (C) Western blot for Nrf2 in nuclear extracts from cells treated as in part A for either 8 h or 24 h. Membranes were stripped and reprobed for Ku-70 as a loading control. (D) Western blot for phospho-eIF2α (Ser51), total eIF2-α, BiP/Grp78, and GAPDH (loading control) in whole cell extracts from cell lines treated as indicated for 24 h with concentrations of XB05 described in part A. Thapsigargin (TG, 2 μM) was used as a positive control for induction of endoplasmic reticulum (ER) stress.
(§2) Reduced Glutathione Content Analyses. After treatment as indicated in the figures and in the Brief Description of the Drawings, cells were harvested as described, counted and dispensed at a density of 10,000 cells/well in triplicate on a 96-well white, opaque bioluminescence plate (Corning). Cellular content of reduced glutathione (GSH) was analyzed using the GSH-Glo® Glutathione Assay Kit (Promega) according to the manufacturer's instructions. The chemiluminescent signal was quantified on a Biotek Synergy HT plate-reader (Biotek, Winooski, Vt.) using an integration time of 1 s/well.

Hs27 cells [2] = assay: GSH-Glo reduced glutathione content assay; type: cell-based, human; conditions: Hs27, 1 μM XB05, 24 h
Experimental: as §1, §2

U937 cells [3] = assay: GSH-Glo reduced glutathione content assay; type: cell-based, human; conditions: U937, 1 μM XB05, 24 h
Experimental: as §1, §2

recombinant human DNMT1 = recombinant human DNMT1 (Homo sapiens, UniProt P26358); assay: DNMT1 activity assay; type: biochemical; conditions: recombinant human DNMT1 or nuclear extracts from treated cells
recombinant human DNMT1, sequence (P26358 whole entry): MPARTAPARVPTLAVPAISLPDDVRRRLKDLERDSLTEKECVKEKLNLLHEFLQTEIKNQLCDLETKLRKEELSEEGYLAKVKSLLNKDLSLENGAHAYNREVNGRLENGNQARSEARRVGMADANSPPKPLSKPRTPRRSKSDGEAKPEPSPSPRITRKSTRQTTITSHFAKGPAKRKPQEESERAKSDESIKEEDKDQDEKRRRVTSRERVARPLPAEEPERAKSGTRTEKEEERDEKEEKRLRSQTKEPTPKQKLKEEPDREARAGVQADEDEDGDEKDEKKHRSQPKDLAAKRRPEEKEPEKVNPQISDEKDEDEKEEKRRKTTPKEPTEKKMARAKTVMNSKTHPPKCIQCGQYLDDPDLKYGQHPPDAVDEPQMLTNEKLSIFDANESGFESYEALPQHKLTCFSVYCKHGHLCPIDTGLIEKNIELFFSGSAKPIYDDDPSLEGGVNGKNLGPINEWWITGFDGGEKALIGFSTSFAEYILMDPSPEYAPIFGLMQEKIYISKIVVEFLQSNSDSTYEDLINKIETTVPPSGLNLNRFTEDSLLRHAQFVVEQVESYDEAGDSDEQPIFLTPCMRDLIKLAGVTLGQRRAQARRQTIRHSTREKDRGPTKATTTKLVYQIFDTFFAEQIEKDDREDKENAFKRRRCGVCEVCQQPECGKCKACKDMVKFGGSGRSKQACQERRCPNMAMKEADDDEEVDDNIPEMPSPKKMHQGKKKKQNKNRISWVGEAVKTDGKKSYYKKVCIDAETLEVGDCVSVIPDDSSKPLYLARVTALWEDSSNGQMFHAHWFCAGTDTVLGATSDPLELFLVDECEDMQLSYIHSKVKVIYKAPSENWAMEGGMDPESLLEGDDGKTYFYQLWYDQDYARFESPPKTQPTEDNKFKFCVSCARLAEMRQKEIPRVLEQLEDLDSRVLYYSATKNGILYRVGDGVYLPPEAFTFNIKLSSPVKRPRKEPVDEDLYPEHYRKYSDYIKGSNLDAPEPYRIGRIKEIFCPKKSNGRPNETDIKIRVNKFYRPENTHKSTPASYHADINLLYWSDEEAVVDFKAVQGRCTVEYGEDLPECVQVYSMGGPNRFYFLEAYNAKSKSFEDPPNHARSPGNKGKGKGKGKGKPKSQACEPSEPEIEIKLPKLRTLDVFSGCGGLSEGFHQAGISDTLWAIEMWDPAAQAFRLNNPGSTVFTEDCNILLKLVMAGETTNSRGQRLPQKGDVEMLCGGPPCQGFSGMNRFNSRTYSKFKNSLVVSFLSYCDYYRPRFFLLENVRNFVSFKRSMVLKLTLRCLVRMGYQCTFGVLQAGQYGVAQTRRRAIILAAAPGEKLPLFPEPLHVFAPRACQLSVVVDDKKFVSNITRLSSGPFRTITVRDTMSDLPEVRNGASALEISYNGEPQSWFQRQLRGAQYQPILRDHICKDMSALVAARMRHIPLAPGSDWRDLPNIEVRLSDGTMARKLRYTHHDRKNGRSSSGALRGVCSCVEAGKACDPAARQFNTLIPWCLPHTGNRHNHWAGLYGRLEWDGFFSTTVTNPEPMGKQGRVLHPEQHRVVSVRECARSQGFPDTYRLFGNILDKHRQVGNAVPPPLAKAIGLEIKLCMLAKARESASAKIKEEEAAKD
From the text: The assays use recombinant Human DNMT1 (FIG. 19A) or nuclear extracts prepared from cells treated with XB05 (BX11) or 5-Aza (5-azacytidine) (FIG. 19B).

A549 cells [4] = assay: Alkaline comet assay; type: cell-based, human; conditions: A549, 72 h
Experimental: (§3) FIG. 11: XB05 Induces DNA Damage in Malignant Cells. (A) Alkaline comet assays for detection of DNA damage for cells treated as indicated for 72 h. TBHP was a positive control for oxidative DNA damage. Decreased DNA fluorescence in nucleoid comet heads (arrows) and increased smearing of DNA into comet tails (asterisks) is indicated. Scale bar, 400 μm. Data shown are representative of at least two individual experiments for each cell line. (B) Western blot analysis for γ-H2AX and GAPDH (loading control) in whole cell extracts from cells treated with vehicle, UV irradiation (800 μJ, positive control for DSBs), or XB05 (1 μM for U937, 2 μM for A549) after 24 h. Images shown are representative of three individual experiments in each cell line. (C) Flow cytometric detection of γ-H2AX in cells treated as described in part B. Bar graph represents mean+/−SEM for 3 individual experiments in each cell line. Statistical comparison indicated significant differences between vehicle and XB05-treated groups in both cell lines (*p≦0.05).
(§4) Comet Assays. Cells were washed once with ice cold PBS, harvested as described and re-suspended at 1×10^5 cells/mL in PBS. As a positive control, cells were incubated with 100 μM tert-butyl hydrogen peroxide (TBHP) for 30 mins (U937, A549) or 1 h (Hs27) at 4° C. prior to harvesting. Comet assays were performed using the CometAssay Kit (Trevigen, Gaithersburg, Md.) according to the manufacturer's instructions. Cells were visualized and digital images captured on an EVOSfI Digital Fluorescent Microscope equipped with a fluorescein light cube.

Hs27 cells [5] = assay: Alkaline comet assay; type: cell-based, human; conditions: Hs27, 72 h
Experimental: as §3, §4

U937 cells [6] = assay: Alkaline comet assay; type: cell-based, human; conditions: U937, 72 h
Experimental: as §3, §4

Q: How did the “increase in GSH” value (A549 cells [1]) turn out when `CCCCCC(O)C#CC(F)(F)Br` (stereo not shown) [XB05] was run?
A: The value was “approximately 1.3 fold”.

Q: What about the “increase in GSH” value (Hs27 cells [2]) of the same molecule?
A: Its value is roughly 2 fold.

Q: What about the “change in reduced GSH” value (U937 cells [3]) of the same molecule?
A: The value was “depletion of reduced GSH”.

Q: What about the “effect on DNMT1 activity” value (recombinant human DNMT1) of the same molecule?
A: Its value is “inhibitory effects”.

Q: What about the “DNA damage (comet tails)” value (A549 cells [4]) of the same molecule?
A: Its value is “comet tails”.

Q: And the “DNA damage (comet tails)” value (Hs27 cells [5])?
A: Its value is “no evidence of DNA damage”.

Q: And the “DNA damage (comet tails)” value (U937 cells [6])?
A: The value was “comet tails”.
